Laboratory results reported in ChEMBL document CHEMBL5244273, “Tuberculosis: An Overview of the Immunogenic Response, Disease Progression, and Medicinal Chemistry Efforts in the Last Decade toward the Development of Potential Drugs for Extensively Drug-Resistant Tuberculosis Strains” (J Med Chem, 2021).
Values after ≈ are worked out from the molar mass of the structure shown.

Key:
[1] = tested on: Mycobacterium tuberculosis; experiment: Antimycobacterial activity against Mycobacterium tuberculosis H37Rv incubated for 4 weeks; type: functional; details: 672 h
[2] = tested on: Mycobacterium tuberculosis; experiment: Antimycobacterial activity against Mycobacterium tuberculosis H37Rv incubated for 5 weeks; type: functional; details: 840 h
[3] = tested on: Mycobacterium tuberculosis; experiment: Antimycobacterial activity against Mycobacterium tuberculosis H37Rv incubated for 3 weeks; type: functional; details: 504 h
[4] = tested on: Mycobacterium tuberculosis; experiment: Antimycobacterial activity against Mycobacterium tuberculosis H37Rv incubated for 2 weeks; type: functional; details: 336 h
[5] = tested on: Mycobacterium tuberculosis; experiment: Antimycobacterial activity against non replicating Mycobacterium tuberculosis by broth dilution method; type: functional
[6] = tested on: J774; experiment: Cytotoxicity against mouse J774 cells incubated for 24 hrs by MTT assay; type: toxicity, cell-based; details: j774, 24 h
[7] = tested on: Mycobacterium tuberculosis; experiment: Antimycobacterial activity against Mycobacterium tuberculosis H37Rv ATCC 27294 by broth dilution method; type: functional
[8] = tested on: Mycobacterium tuberculosis; experiment: Antimycobacterial activity against Mycobacterium tuberculosis H37Rv; type: functional
[9] = Selectivity index, ratio of GI50 for cytotoxicity against human MCF7 cells to MIC for antitubercular activity against active stage of Mycobacterium tuberculosis H37Ra; type: toxicity, cell-based; details: read-out: Selectivity Index
[10] = tested on: MCF7; experiment: Cytotoxicity against human MCF7 cells assessed as cell growth inhibition; type: functional
[11] = Selectivity index, ratio of GI50 for cytotoxicity against human HeLa cells to MIC for antitubercular activity against active stage of Mycobacterium tuberculosis H37Ra; type: toxicity, cell-based; details: read-out: Selectivity Index
[12] = Cytotoxicity against HUVEC cells assessed as cell growth inhibition; type: toxicity, cell-based; details: human
[13] = Selectivity index, ratio of GI50 for cytotoxicity against human MCF7 cells to MIC for antitubercular activity against dormant stage of Mycobacterium tuberculosis H37Ra; type: toxicity, cell-based; details: read-out: Selectivity Index
[14] = tested on: HeLa; experiment: Cytotoxicity against human HeLa cells assessed as cell growth inhibition; type: functional
[15] = Selectivity index, ratio of GI50 for cytotoxicity against HUVEC cells to MIC for antitubercular activity against active stage of Mycobacterium tuberculosis H37Ra; type: toxicity, cell-based; details: human, read-out: Selectivity Index
[16] = Selectivity index, ratio of GI50 for cytotoxicity against human HeLa cells to MIC for antitubercular activity against dormant stage of Mycobacterium tuberculosis H37Ra; type: toxicity, cell-based; details: read-out: Selectivity Index
[17] = tested on: Mycobacterium tuberculosis; experiment: Antitubercular activity against active stage of Mycobacterium tuberculosis H37Ra; type: functional
[18] = tested on: Mycobacterium tuberculosis; experiment: Antitubercular activity against dormant stage of Mycobacterium tuberculosis H37Ra; type: functional
[19] = Selectivity index, ratio of GI50 for cytotoxicity against HUVEC cells to MIC for antitubercular activity against dormant stage of Mycobacterium tuberculosis H37Ra; type: toxicity, cell-based; details: human, read-out: Selectivity Index

Row | SMILES | MIC [1] [µg/mL] | MIC [2] [µg/mL] | MIC [3] [µg/mL] | MIC [4] [µg/mL] | MIC [5] [µg/mL] | Activity [6] [µg/mL] | MIC [7] [µg/mL] | further results
1 | COc1ccc(-c2cc3c(cc2F)c(=O)c(C(=O)O)cn3C(C)(C)C)cc1 | 1 (≈ 2.71 µM) | 2 (≈ 5.41 µM) | 1 (≈ 2.71 µM) | 0.5 (≈ 1.35 µM) |  |  |  | 
2 | CC(C)(C)n1cc(C(=O)O)c(=O)c2cc(F)c(-c3cccnc3)cc21 | 0.25 (≈ 0.735 µM) | 0.25 (≈ 0.735 µM) | 0.25 (≈ 0.735 µM) | 0.25 (≈ 0.735 µM) |  |  |  | 
3 | CC(C)(C)n1cc(C(=O)O)c(=O)c2cc(F)c(C#Cc3ccccc3)cc21 | > 16 | > 16 | > 16 | > 16 |  |  |  | 
4 | CC(C)(C)n1cc(C(=O)O)c(=O)c2cc(F)c(-c3ccc(O)cc3)cc21 | 0.25 (≈ 0.704 µM) | 0.25 (≈ 0.704 µM) | 0.25 (≈ 0.704 µM) | 0.25 (≈ 0.704 µM) |  |  |  | 
5 | Cc1cc(-c2cn(C[C@@]3(C)Cn4cc([N+](=O)[O-])nc4O3)nn2)ccc1F |  |  |  |  | 4 (≈ 11.2 µM) | > 40 | 2 (≈ 5.58 µM) | 
6 | CC(C)(C)n1cc(C(=O)O)c(=O)c2cc(F)c(-c3ccc(Cl)cc3)cc21 | 1 (≈ 2.68 µM) | 1 (≈ 2.68 µM) | 1 (≈ 2.68 µM) | 1 (≈ 2.68 µM) |  |  |  | 
7 | Cc1ccc(OCc2cn(C[C@@]3(C)Cn4cc([N+](=O)[O-])nc4O3)nn2)cc1 |  |  |  |  | 2 (≈ 5.4 µM) | > 40 | 1 (≈ 2.7 µM) | 
8 | CCc1ccc(OCc2cn(C[C@@]3(C)Cn4cc([N+](=O)[O-])nc4O3)nn2)cc1 |  |  |  |  | 2 (≈ 5.2 µM) | > 40 | 2 (≈ 5.2 µM) | 
9 | C[C@]1(Cn2cc(CN3CCOCC3)nn2)Cn2cc([N+](=O)[O-])nc2O1 |  |  |  |  | 1 (≈ 2.86 µM) | > 40 | 2 (≈ 5.72 µM) | 
10 | Cc1cccc(OCc2cn(C[C@@]3(C)Cn4cc([N+](=O)[O-])nc4O3)nn2)c1 |  |  |  |  | 0.5 (≈ 1.35 µM) | > 40 | 0.5 (≈ 1.35 µM) | 
11 | COc1ccc(-c2cc3c(cc2F)c(=O)c(C(=O)O)cn3C(C)(C)C)cn1 | 0.5 (≈ 1.35 µM) | 0.5 (≈ 1.35 µM) | 0.25 (≈ 0.675 µM) | 0.25 (≈ 0.675 µM) |  |  |  | 
12 | Cc1ccc(OCCc2cn(C[C@@]3(C)Cn4cc([N+](=O)[O-])nc4O3)nn2)cc1 |  |  |  |  |  | > 40 | 0.25 (≈ 0.65 µM) | MIC [8]: 0.25 µg/mL (≈ 0.65 µM)
13 | Cc1ccc(SCc2cn(C[C@@]3(C)Cn4cc([N+](=O)[O-])nc4O3)nn2)cc1 |  |  |  |  | 1 (≈ 2.59 µM) | > 40 | 2 (≈ 5.18 µM) | 
14 | C[C@]1(Cn2cc(-c3ccc(C(F)(F)F)cc3)nn2)Cn2cc([N+](=O)[O-])nc2O1 |  |  |  |  | 8 (≈ 20.3 µM) | > 40 | 2 (≈ 5.07 µM) | 
15 | CC(C)(C)CCn1cc(C(=O)O)c(=O)c2cc(F)c(-c3ccccc3)cc21 | 8 (≈ 21.8 µM) | 8 (≈ 21.8 µM) | 8 (≈ 21.8 µM) | 4 (≈ 10.9 µM) |  |  |  | 
16 | C[C@]1(Cn2cc(-c3ccc(F)cc3)nn2)Cn2cc([N+](=O)[O-])nc2O1 |  |  |  |  | 2 (≈ 5.81 µM) | > 40 | 1 (≈ 2.9 µM) | 
17 | CCOC(=O)c1ccsc1NC(=O)[C@@H]1CCCN1 |  |  |  |  |  |  |  | selectivity ratio [9]: > 27.5; GI50 [10]: > 250 µg/mL; selectivity ratio [11]: 3.88; GI50 [12]: > 250 µg/mL; selectivity ratio [13]: > 32.8; GI50 [14]: 35.3 µg/mL (≈ 132 µM); selectivity ratio [15]: > 27.5; selectivity ratio [16]: 4.63; MIC [17]: 9.08 µg/mL (≈ 33.8 µM); MIC [18]: 7.62 µg/mL (≈ 28.4 µM); selectivity ratio [19]: > 32.8
18 | C[C@]1(Cn2cc(COc3cccc(F)c3)nn2)Cn2cc([N+](=O)[O-])nc2O1 |  |  |  |  | 2 (≈ 5.34 µM) | > 40 | 1 (≈ 2.67 µM) | 
19 | C[C@]1(Cn2cc(-c3ccc(F)cc3F)nn2)Cn2cc([N+](=O)[O-])nc2O1 |  |  |  |  | 8 (≈ 22.1 µM) | > 40 | 1 (≈ 2.76 µM) | 
20 | O=C(Oc1ccccc1)c1ccsc1NC(=O)[C@@H]1CCCN1 |  |  |  |  |  |  |  | selectivity ratio [9]: > 10.1; GI50 [10]: > 250 µg/mL; selectivity ratio [11]: > 10.1; GI50 [12]: > 250 µg/mL; selectivity ratio [13]: > 10.6; GI50 [14]: > 250 µg/mL; selectivity ratio [15]: > 10.1; selectivity ratio [16]: > 10.6; MIC [17]: 24.7 µg/mL (≈ 78.2 µM); MIC [18]: 23.7 µg/mL (≈ 74.8 µM); selectivity ratio [19]: > 10.6
21 | C[C@]1(Cn2cc(-c3ccc(OC(F)(F)F)cc3)nn2)Cn2cc([N+](=O)[O-])nc2O1 |  |  |  |  | 4 (≈ 9.75 µM) | > 40 | 2 (≈ 4.87 µM) | 
22 | Cc1ccccc1OCc1cn(C[C@@]2(C)Cn3cc([N+](=O)[O-])nc3O2)nn1 |  |  |  |  | 2 (≈ 5.4 µM) | > 40 | 0.5 (≈ 1.35 µM) | 
